Data on one molecule can be found in patent US3937838A, “Orally active bronchospasmolytic compounds and their preparation” (priority 1966, dated 1976).

“Also recorded” adds a separate entry of the source. Read-outs that look alike come from different tables or passages of the source.

The test system of data set [1] is spirally cut trachea from the guinea pig. As to the kind of experiment: Bronchospasmolytic effect in vitro (Example 5a), spirally cut trachea. Particulars: at ED50; pilocarpine contracted; racemic terbutaline. On the procedure:
Pharmacol. Exp. Ther. 90 (1947) page 104] and later modified by Constantine [J. Pharm. Pharmacol. 17 (1965) page 384]. In this test, guinea pigs are stunned with a blow on the head and bled to death. The trachea is dissected out, cut spirally and mounted in an organ bath (25 ml) in Krebs solution continuously aerated with oxygen (95%) and carbon dioxide (5%). […] The tension of the preparation is measured and is usually about 2 gm. initially. Dose response curves for epinephrine and each of the test compounds are then evaluated on the same muscle preparation.

Data set [2] concerns histamine induced bronchoconstriction. Nature of the data set: Bronchospasmolytic effect in vivo, Konzett and Rossler (Example 5b). The arrangement: species or system guinea pig. Particulars: intravenous; histamine-induced bronchospasm; FIG. 1. The method, then:
Orciprenaline and terbutaline were also tested in vivo according to the method described by Konzett and Rossler [Arch. Exp. Path. Pharmak. 195 (1940) page 71]. In the method of Konzett and Rossler, the animal is ventilated with a constant volume of air. When a certain pressure has been reached in the lung, the volume of air which is in excess of the pulmonary capacity will escape through the valve. This surplus of air is recorded. The testing compounds in the Konzett and Rossler method, bronchial contraction is provoked by administration of histamine. The histamine reduced the capacity of the airways, and the measured overflow increases. In order to see to what extent a test compound counteracts the histamine-induced bronchospasm, the animal is first given an injection of the test compound which is followed 3 minutes later by exposure to histamine.

The test system of data set [3] is right auricle from the guinea pig. As to the kind of experiment: Dual preparation test in vitro, effect on auricle (Example 5c). Particulars: slow infusion, FIGS. 2-4. The text has this: (§1) [This procedure is more fully described below in Example 5 (b)].
(§2) FIG. 2 illustrates the effect of epinephrine (EPE) and terbutaline on spirally cut trachea and right auricle from the guinea pig. Both preparations are dissected out from the same animal and run under identical experimental conditions;
(§3) Both preparations are dissected out from the same animal, and run under identical experimental conditions;
(§4) Both preparations are dissected out from the same animal and run under identical experimental conditions;
(§5) The relation between the heart stimulatory effect and bronchodilator effect was studied in vitro on auricle-trachea-preparation from the guinea pig in order to compare the effect on the heart and the effect on the bronchial muscle under identical experimental conditions. Both spontaneously bearing auricle and spirally-cut trachea were placed in the same bath in Krebs solution. Both preparations were taken from the same animal.
(§6) The compound to be tested was slowly infused into the bathing solution and the tension was measured for each of the auricle and trachael preparations.
(§7) In carrying out this dual preparation test, epinephrine was used as a reference. […] Infusion of epinephrine was made over a period of ten minutes. After washing and recovery, the test solution was infused in the same manner and the effect of the test compound was compared with the effect of epinephrine.
Referring more specifically to FIG. 2, the upper portion of each chart thereof represents the tension continuously recorded of the auricle preparation (shaded area 1 for the effect of epinephrine on the auricle, ref. no. 2 for the effect of terbutaline infused at a rate of 0.2 μg/min on the auricle, and ref. no. 3 for the effect of terbutaline infused at a rate of 0.375μg/min on the auricle).

Data set [4] has as its system spirally cut trachea from the guinea pig. As to the kind of experiment: Dual preparation test in vitro, effect on trachea (Example 5c). Particulars: slow infusion; 0.375 μg/min where stated; FIGS. 2-4.
Text: as §1, §2, §3, §4, §5, §6, §7

A further data set deals with isolated rabbit heart. As to the kind of experiment: Effect on isolated heart, Langendorff preparation (Example 5d). On the procedure: The effect of the compound of the present invention was also studied on isolated rabbit heart (Langendorff preparation) the method used as described by Anden et al. (Acta Pharmacol. et Toxicol., 21 (1964) page 247). In this procedure, the isolated heart is mounted in a Krebs solution and the test compound is injected into it. Measurements are continuously recorded of the rate and force of contraction.
The tests using epinephrine establish a standard of comparison to evaluate subsequent test compounds in the same preparation.

The subject of data set [5] is sphincter of Oddi (choledochoduodenal sphincter). As to the kind of experiment: Effect on sphincter of Oddi (Example 5e). In kind it is in vivo, cat. On the procedure:
The effect of terbutaline on the choledochoduodenal sphincter of young, healthy cats was studied. Young animals weighing at least 2.0 kg were used. After being deprived of food but not water for 24 hours, they were anesthetized with pentobarbitol (40 mg/kg i.p.). The terminal portion of a common bile duct was isolated and cannulated toward the duodenum. The hepatic part of the bile duct was drained to prevent distention. The pressure was continuously recorded by the open tip technique. Details of the experimental set up have been published by Liedberg and Halabi [Acta. Chir. Scand. 136 (1970) page 208.] Heart rate was recorded on all experiments and blood pressure by arterial cannulation in some.
Referring to the upper curve of FIGS. 7 and 8, the heart rate is continuously recorded. Concurrent records are made in the middle curve and lower curve of the pressures measured respectively in the common bile duct and in the lower duodenum.
As a control in this test, the animal was also treated with 0.5 international units per kg of cholecystokinin (CCK).
In a second test of the effect of terbutaline and isoprenaline on the sphincter (see FIG. 8), the duodenal motility was measured without being affected by CCK.

The nature of data set [6]: Acute toxicity in mice (Example 9). As to conditions: mouse, in vivo, mice (base).
Data set [7] relates to bronchoconstriction by histamine aerosol. As to the kind of experiment: Protecting effect against histamine aerosol in guinea pigs (Example 15). As to conditions: Cavia porcellus, read-out: ED50 (protecting 50 percent of the animals for more than 4 minutes). In kind it is in vivo, guinea pig. The text has this:
Male guinea pigs (200--300 g) were used. Bronchoconstriction was produced by letting the animals inhale a histamine aerosol.

A short description of data set [8]: Toxicity study in mice (Example 18). Type of data set: in vivo. As to conditions: mouse, in vivo, mice (NMRI, male), 24 hours, read-out: LD 50 + Standard error. On the procedure:
The toxicity was studied in mice (NMRI, male, 18-28 g) 24 hours after i.v. and oral administration. The animals were observed during five days. No further deaths occurred.

The next data set concerns asthmatic patients. Nature of the data set: Clinical trials, arterial oxygen tension in asthmatic patients. Particulars: a number of clinical trials. Type of data set: in vivo, human. The text has this: Because stimulation of the cardiovascular system is thought to be a cause of the adverse effects of many of the prior art compounds on blood oxygen pressures, it is expected that the compounds of the present invention will be less likely to lead to a fall in blood oxygen pressure then compounds such as epinephrine or isoprenaline. The compounds of the present invention have the added advantage of improved longevity of action over all of the compounds described above. […] This improvement has been observed in a number of clinical trials.

Data set [9] has as its system bronchial muscle and heart.
Text: as §1

The test system of data set [10] is cardioaccelerating effect. As to conditions: in vivo.
Text: as §1

Where [11] appears, read: anesthetized cats, concurrent with sphincter effect.

Consider `CC(C)(C)NCC(O)c1cc(O)cc(O)c1` (racemic) [terbutaline, 1-(3',5'-dihydroxyphenyl)-2-(t-butylamino)-ethanol], for which the “relaxation of trachea, activity relative to orciprenaline” value in [1] is listed as “about two”. The “relaxation of trachea, potency relative to (-)-epinephrine” value in data set [1] was “slightly less potent than (-)-epinephrine”. Moreover, the “bronchospasmolytic effect relative to orciprenaline” value in [2] is “twice”. For the same molecule, the “cardiac stimulation in relation to bronchodilator effect” value in [3] (both preparations in same bath) is “bronchodilation was obtained without any effect on the heart muscle preparation”. In addition, the “effect on auricle (tension)” value in data set [3] (0.375 μg/min where stated) is recorded as “little observable effect on the auricle”. In [4], the “effect on trachea (relaxation)” value is on record as “nearly comparable to that of epinephrine infused at the same rate”. The “effect on isolated heart relative to epinephrine” value with isolated rabbit heart (cardiac/cardioaccelerating effect, FIGS. 5, 6) is on record as “about one-fiftieth”. The “effect on rate and force of isolated heart” value with isolated rabbit heart (injection, FIG. 5) is recorded as “weak”. Also, in [5] (5-10 μg/kg), the “number of cats responding (the other five of 25)” value was “five”. Besides, the “duodenal pressure / motility” value in [5] (setting [11]) is listed as “only slightly affects; also recorded: minimum effects”. In addition, the heart rate entry in data set [5] (setting [11]) is reported as “only slightly affects the heart rate; also recorded: minimum effects on heart rate”. Moreover, the “common bile duct pressure / sphincter relaxation” value in data set [5] (anesthetized cats, i.v., 1 μg/kg terbutaline in FIG. 7, FIG. 8) is “substantially reduces the common bile duct pressures; also recorded: relaxed the sphincter”. The “number of cats responding (of 25)” value in data set [5] (dose range 0.5-4.0 μg/kg) turned out to be 20 cats. In addition, the LD50 was determined as 47 mg/kg in data set [6] (iv), 240 mg/kg in data set [6] (sc) and 3200 mg/kg in data set [6] (oral). For the same molecule, the ED50 stood at 0.4 mg/kg in data set [7] (0.5 h, oral, 30 minutes before histamine) and 0.15 mg/kg in data set [7] (ip, 0.25 h, i.p., 15 minutes before histamine). For the same molecule, the LD50 at 24 h in data set [8] (iv) was determined as 52 ± 3 mg/kg; in [8] (po), 3200 mg/kg. Moreover, the arterial oxygen tension entry in the data set with asthmatic patients is reported as “improved arteriel oxygen tension in asthmatic patients”. Besides, the “duration of effect versus orciprenaline” value in data set [9] is “longer than that of orciprenaline”. Also, the “bronchodilator potency versus orciprenaline” value in data set [9] (in vitro and in vivo) is reported as “more potent bronchodilator”. Further, in [10], the cardioaccelerating effect result is recorded as “weak cardioaccelerating effect”.

One may read the ED50 as the dose that gives a 50% effect, or the effect in half of the subjects.
